Measurements taken from ChEMBL document CHEMBL1221372, “Design and synthesis of new adamantyl-substituted antileishmanial ether phospholipids” (Bioorg Med Chem Lett, 2010).

How the values were obtained:
THP-1 = experiment: Cytotoxicity against human THP1 cells using propidium iodide and SYBR-14 staining after 72 hrs by flow cytometry; assay type: cell-based; settings: THP-1, 72 h
Leishmania infantum [1] = experiment: Antileishmanial activity against intracellular amastigote form of Leishmania infantum MK-1 infected in human THP1 cells after 48 hrs using giemsa staining; assay type: functional, organism-based; settings: MK-1, THP-1, 48 h
Leishmania infantum [2] = experiment: Antileishmanial activity against intracellular amastigote form of Leishmania infantum MON 235 infected in human THP1 cells after 48 hrs using giemsa staining; assay type: functional, organism-based; settings: MON 235, THP-1, 48 h
[3] = Selectivity index, ratio of IC50 for human THP1 cells to IC50 for intracellular amastigote form of Leishmania infantum MON 235; assay type: toxicity, cell-based, THP-1; settings: read-out: Ratio IC50
Homo sapiens = species: Homo sapiens; experiment: Half life in human; assay type: ADME, organism-based; settings: in vivo
[4] = Selectivity index, ratio of IC50 for human THP1 cells to IC50 for intracellular amastigote form of Leishmania infantum MK-1; assay type: toxicity, cell-based, THP-1; settings: read-out: Ratio IC50

Row | IC50 (Leishmania infantum [1]) [µM] | IC50 (Leishmania infantum [2]) [µM] | t1/2 (Homo sapiens) [h] | SMILES | IC50 (THP-1) [µM] | selectivity ratio [3] | selectivity ratio [4]
1 |  | 5.69 |  | C[N+]1(CCOP(=O)([O-])OCCCCCCCCCCC=C2C3CC4CC(C3)CC2C4)CCCCC1 |  | 29.6 | 
2 |  | 0.3 |  | C[N+](C)(C)[C@H]1CCC[C@@H]1OP(=O)([O-])OCCCCCCCCCCC=C1C2CC3CC(C2)CC1C3 | 75 | 250 | 
3 |  | 1.34 |  | C[N+]1(CCOP(=O)([O-])OCCCCCCCCCCC=C2C3CC4CC(C3)CC2C4)CCOCC1 |  | 27.9 | 
4 |  | 0.8 |  | C[N+](C)(C)[C@H]1CCCC[C@@H]1OP(=O)([O-])OCCCCCCCCCCC=C1C2CC3CC(C2)CC1C3 | 39.7 | 49.6 | 
5 |  | 5.2 |  | C[N+](C)(C)CC#CCOP(=O)([O-])OCCCCCCCCCCC=C1C2CC3CC(C2)CC1C3 |  | 14.5 | 
6 |  | 0.031 |  | C[N+](C)(C)CCOP(=O)([O-])OCCCCCCCCCCC=C1C2CC3CC(C2)CC1C3 |  | 1920 | 

More lines, now with the values behind:

Row | SMILES | IC50 (Leishmania infantum [1]) [µM] | IC50 (Leishmania infantum [2]) [µM] | t1/2 (Homo sapiens) [h] | IC50 (THP-1) [µM] | selectivity ratio [3] | selectivity ratio [4]
7 | CCCCCCCCOCCC12CC3CC(C1)CC(CCOP(=O)([O-])OCC[N+](C)(C)C)(C3)C2 | 16.2 |  |  | > 50 |  | 
8 | C[N+]1(C)C2CCC1CC(=CCOP(=O)([O-])OCCCCCCCCCCC=C1C3CC4CC(C3)CC1C4)C2 |  | 9.1 |  |  | 16.2 | 
9 | CCCCCCCCCCCCCCCCOP(=O)([O-])OCC[N+](C)(C)C [MILTEFOSINE] | 2.56 | 6.7 | 1.67 |  | 8.7 | 11.2
10 | CCCCCCCCCCCCOCCC12CC3CC(C1)CC(CCOP(=O)([O-])OCC[N+](C)(C)C)(C3)C2 | > 21.4 |  |  | 21.4 |  | 
11 | CCCCOCCC12CC3CC(C1)CC(CCOP(=O)([O-])OCC[N+](C)(C)C)(C3)C2 | > 50 |  |  | > 50 |  | 
12 | CCCCCCOCCC12CC3CC(C1)CC(CCOP(=O)([O-])OCC[N+](C)(C)C)(C3)C2 | 17.1 |  |  | > 50 |  | 
13 | C[N+](C)(C)CCOP(=O)([O-])OCCC12CC3CC(CC(CCOCc4ccccc4)(C3)C1)C2 | 41.8 |  |  | > 50 |  | 
14 | CCCCCCCCCCOCCC12CC3CC(C1)CC(CCOP(=O)([O-])OCC[N+](C)(C)C)(C3)C2 | > 18.4 |  |  | 18.4 |  | 
